Results taken from publication PMC6943619, “Synthesis and Pharmacological Evaluation of Hybrids Targeting Opioid and Neurokinin Receptors” (Molecules, 2019).
Where a SMILES comes first, the peptide text is derived from it. Bridges are numbered along the chain shown (N, C = ends). [ ]: non-standard residue; d: D form.

Tests used:
[1] = cited from earlier work
Text: Here, we report on the synthesis and the initial pharmacological testing of several hybrid peptides with opioid agonist/NK1 antagonist and opioid agonist/NK1 agonist profiles. We performed structure affinity/activity relationship studies, seeking hybrids that could simultaneously and potently bind opioid and NK1 receptors. Both types of hybrids were designed with the same opioid fragment to make the comparison of their activity easier. It was already documented in the literature that simultaneous activation of both MOR and KOR intensifies the analgesic effect of pure MOR agonists. There ...

[2] = molecular target: T1, human opioid receptor KOR (Homo sapiens, UniProt P41145); assay: Radioligand binding assay, displacement of [3H]U-69593; details: displacement of [3H]U-69593 from membranes of CHO cells transfected with human KOR, 50 mM Tris/HCl pH 7.4, 0.5% BSA, peptidase inhibitors, 2 h at 25 °C, mean ± SEM, n ≥ 3
T1 construct: purchased PerkinElmer (Krakow, Poland); host or cells: CHO cell membranes
Experimental: (§1) A radioligand binding assay was performed to determine the opioid receptor (OR) binding affinities of the novel analogs using commercially available membranes of Chinese hamster ovary cells (CHO) transfected with human recombinant ORs. [^3H]DAMGO, [^3H]deltorphin-2, and [^3H]U-69593 were used as the radioligands for MOR, DOR, and KOR, respectively. Tyr-[D-Lys-Phe-Phe-Asp]NH2 (1) was used as a reference opioid compound. […] None of them acquired significant DOR affinity.
(§2) To determine the affinity of peptide analogs to respective receptors, competition binding experiments were performed, as described in detail elsewhere.
(§3) Commercial membranes of CHO cells stably expressing either human ORs or NK1 receptor were used. [^3H]DAMGO, [^3H]deltorphin-2, and [^3H]U-69593 were employed as the competing radioligands for MOR, DOR, and KOR, respectively, while [^3H][Sar^9, Met(O2)^11]SP was utilized for the NK1 receptor. Membranes were incubated in a 0.5 mL volume of 50 mM Tris/HCl (pH = 7.4), 0.5% bovine serum albumin (BSA), with a number of peptidase inhibitors (bacitracin, bestatin, captopril) and various concentrations of radioligands for 2 h at 25 °C. Nonspecific binding was assessed in the presence of […] naloxone for ORs or SP for NK1 receptor.
(§4) The pharmacological terminology adopted in this paper is consistent with International Union of Basic and Clinical Pharmacology (IUPHAR) recommendations. Concentration–response curves were analyzed by nonlinear regression using Graph Pad Prism 6.0 (La Jolla, CA, USA). […]. […] Concentration–response curves were fitted with the four-parameter logistic nonlinear regression model (1) Effect=baseline+Emax−baseline/1+10^logEC50−X·n where X is the agonist concentration and n is the Hill coefficient. Ligand efficacy was expressed as intrinsic activity (α) calculated as a ratio of the peptide Emax to the Emax of the standard agonist (Supplementary Materials, Figure S7). […]. All statistical analyses were performed using Graph Pad Prism 6.0 (La Jolla, CA, USA). Differences between groups were analyzed with one-way ANOVA and a post hoc multiple comparison by the Student–Newman–Keuls test. A probability level of 0.05 or smaller was used to indicate statistical significance.

human KOR = molecular target: T2, human KOR (Homo sapiens, UniProt P41145); assay: Calcium mobilization functional assay, agonist mode; assay type: cell-based; details: CHO cells co-expressing human KOR and Gαqi5; Fluo-4 AM calcium signal; n = 5; read-out: KOR pEC50 (CL95%) (converted)
T2 construct: expressed in transfected cells; host or cells: CHO cells (University of Ferrara), co-expressing Gαqi5

DOR = molecular target: T3, DOR (Homo sapiens, UniProt P41143); assay: as above; assay type: cell-based; details: CHO cells co-expressing DOR and GαqG66Di5; Fluo-4 AM calcium signal; n = 5
T3 construct: expressed in transfected cells; host or cells: CHO cells (University of Ferrara), co-expressing GαqG66Di5

human NK1 = human NK1 (Homo sapiens, UniProt P25103); assay: Radioligand binding assay, displacement of [3H][Sar9, Met(O2)11]SP; design: purchased PerkinElmer (Krakow, Poland); host or cells: CHO cell membranes; details: displacement of [3H][Sar9, Met(O2)11]SP from membranes of CHO cells transfected with human NK1 receptor; 50 mM Tris/HCl pH 7.4, 0.5% BSA, peptidase inhibitors, 2 h at 25 °C; mean ± SEM, n ≥ 3
Experimental: The binding assay was also used to examine the affinity of the synthesized hybrids for NK1 in commercial membranes of CHO cells stably expressing human NK1.
as §2
(§5) Commercial membranes of CHO cells stably expressing either human ORs or NK1 receptor were used. […] Membranes were incubated in a 0.5 mL volume of 50 mM Tris/HCl (pH = 7.4), 0.5% bovine serum albumin (BSA), with a number of peptidase inhibitors (bacitracin, bestatin, captopril) and various concentrations of radioligands for 2 h at 25 °C.
(§6) The pharmacological terminology adopted in this paper is consistent with International Union of Basic and Clinical Pharmacology (IUPHAR) recommendations. Concentration–response curves were analyzed by nonlinear regression using Graph Pad Prism 6.0 (La Jolla, CA, USA). […] Concentration–response curves were fitted with the four-parameter logistic nonlinear regression model (1) Effect=baseline+Emax−baseline/1+10^logEC50−X·n where X is the agonist concentration and n is the Hill coefficient. Ligand efficacy was expressed as intrinsic activity (α) calculated as a ratio of the peptide Emax to the Emax of the standard agonist (Supplementary Materials, Figure S7). […] All statistical analyses were performed using Graph Pad Prism 6.0 (La Jolla, CA, USA). Differences between groups were analyzed with one-way ANOVA and a post hoc multiple comparison by the Student–Newman–Keuls test. A probability level of 0.05 or smaller was used to indicate statistical significance.

mice = assay: Stool collection (stool mass, stool water content); assay type: in vivo; details: repeated i.p. injections 5 mg/kg, stool collected 90 min after injection on Days 1–6, compared to control group, n = 10
Experimental: In order to determine the influence of prolonged administration of the tested compounds on gastrointestinal passage, stool was collected for six days from mice used in the tolerance development test.
Figure 5 Effect of repeated i.p. injections of saline and the tested peptides on stool mass (A), stool water content (B), food intake (C), and water consumption (D). The data represent mean ± SEM, n = 10. Statistical significance was assessed using one-way ANOVA and a post hoc multiple comparison by the Student–Newman–Keuls test. *** p < 0.001, as compared to control.
After the i.p. injections of saline or peptides (Days 1–6), mice were placed in a separate clean cages and stool was collected for a period of 90 min. Fecal pellets were collected immediately after expulsion to avoid evaporation and placed in closed 1.5 mL tubes. Tubes were weighed to obtain the wet weight of the stool. Then, the tubes were opened and stool was dried overnight at 65 °C and reweighed to obtain the dry weight. The stool water content was calculated from the difference between the wet and dry stool weights.

[3] = molecular target: T4, human opioid receptor DOR (Homo sapiens, UniProt P41143); assay: Radioligand binding assay, displacement of [3H]deltorphin-2; details: displacement of [3H]deltorphin-2 from membranes of CHO cells transfected with human DOR, 50 mM Tris/HCl pH 7.4, 0.5% BSA, peptidase inhibitors, 2 h at 25 °C, mean ± SEM, n ≥ 3
T4 construct: purchased PerkinElmer (Krakow, Poland); host or cells: CHO cell membranes
Experimental: A radioligand binding assay was performed to determine the opioid receptor (OR) binding affinities of the novel analogs using commercially available membranes of Chinese hamster ovary cells (CHO) transfected with human recombinant ORs. […] Tyr-[D-Lys-Phe-Phe-Asp]NH2 (1) was used as a reference opioid compound.
as §2, §5, §6

[4] = molecular target: T5, human opioid receptor MOR (Homo sapiens, UniProt P35372); assay: Radioligand binding assay, displacement of [3H]DAMGO; details: displacement of [3H]DAMGO from membranes of CHO cells transfected with human MOR, 50 mM Tris/HCl pH 7.4, 0.5% BSA, peptidase inhibitors, 2 h at 25 °C, mean ± SEM, n ≥ 3
T5 construct: purchased PerkinElmer (Krakow, Poland); host or cells: CHO cell membranes
Experimental: as §1, §2, §3, §4

human MOR = molecular target: T6, human MOR (Homo sapiens, UniProt P35372); assay: Calcium mobilization functional assay, agonist mode; assay type: cell-based; details: CHO cells co-expressing human MOR and Gαqi5; Fluo-4 AM calcium signal; n = 5; read-out: MOR pEC50 (CL95%) (converted)
T6 construct: expressed in transfected cells; host or cells: CHO cells (University of Ferrara), co-expressing Gαqi5
T6 sequence (P35372 whole entry): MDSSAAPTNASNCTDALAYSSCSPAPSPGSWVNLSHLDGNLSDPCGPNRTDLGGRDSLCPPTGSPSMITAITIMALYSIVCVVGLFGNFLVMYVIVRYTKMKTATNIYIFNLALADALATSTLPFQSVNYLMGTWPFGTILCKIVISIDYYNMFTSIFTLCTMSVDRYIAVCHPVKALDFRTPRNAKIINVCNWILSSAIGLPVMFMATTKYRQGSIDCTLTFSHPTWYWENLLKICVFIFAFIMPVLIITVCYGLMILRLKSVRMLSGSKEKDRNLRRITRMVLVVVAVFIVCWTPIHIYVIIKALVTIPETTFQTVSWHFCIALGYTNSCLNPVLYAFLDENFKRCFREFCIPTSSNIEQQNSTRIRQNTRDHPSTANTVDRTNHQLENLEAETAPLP

T2 sequence (P41145 whole entry): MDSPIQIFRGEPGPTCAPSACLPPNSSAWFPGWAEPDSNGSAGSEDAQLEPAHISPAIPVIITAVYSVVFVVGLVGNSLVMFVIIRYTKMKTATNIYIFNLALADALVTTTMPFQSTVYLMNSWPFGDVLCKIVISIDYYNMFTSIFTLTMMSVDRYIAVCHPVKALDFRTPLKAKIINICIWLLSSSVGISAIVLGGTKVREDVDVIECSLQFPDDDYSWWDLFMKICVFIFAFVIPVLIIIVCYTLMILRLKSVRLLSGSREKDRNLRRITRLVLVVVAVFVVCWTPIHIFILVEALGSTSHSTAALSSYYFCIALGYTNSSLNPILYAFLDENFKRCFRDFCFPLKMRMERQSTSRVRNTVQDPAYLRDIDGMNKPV
T1 sequence (P41145 whole entry): as above
Chain of human NK1 (P25103 whole entry): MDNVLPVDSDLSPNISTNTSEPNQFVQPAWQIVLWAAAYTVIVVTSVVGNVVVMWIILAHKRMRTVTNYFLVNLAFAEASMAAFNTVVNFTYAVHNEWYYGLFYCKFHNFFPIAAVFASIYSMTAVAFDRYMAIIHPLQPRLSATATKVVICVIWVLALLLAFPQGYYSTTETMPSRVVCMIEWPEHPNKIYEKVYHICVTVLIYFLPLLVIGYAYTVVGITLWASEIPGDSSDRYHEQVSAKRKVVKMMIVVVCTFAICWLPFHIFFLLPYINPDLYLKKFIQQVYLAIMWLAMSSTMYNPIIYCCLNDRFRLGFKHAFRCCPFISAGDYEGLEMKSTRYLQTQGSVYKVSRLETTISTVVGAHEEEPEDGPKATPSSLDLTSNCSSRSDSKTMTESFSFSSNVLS
T4 sequence (P41143 whole entry): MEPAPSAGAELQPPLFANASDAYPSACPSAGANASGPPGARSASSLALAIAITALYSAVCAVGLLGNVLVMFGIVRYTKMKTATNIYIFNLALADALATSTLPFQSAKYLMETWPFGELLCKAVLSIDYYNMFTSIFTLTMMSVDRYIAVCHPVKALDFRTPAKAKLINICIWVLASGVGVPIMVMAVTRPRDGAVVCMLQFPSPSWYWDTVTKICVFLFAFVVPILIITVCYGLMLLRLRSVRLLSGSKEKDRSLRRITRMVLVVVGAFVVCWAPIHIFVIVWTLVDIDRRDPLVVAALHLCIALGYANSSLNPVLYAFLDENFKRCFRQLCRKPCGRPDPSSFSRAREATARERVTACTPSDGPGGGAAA
T3 sequence (P41143 whole entry): as above
T5 sequence (P35372 whole entry): as the sequence (P35372 whole entry) above

Question: For `NC(=O)[C@@H]1CC(=O)NCCCC[C@@H](NC(=O)[C@@H](N)Cc2ccc(O)cc2)C(=O)N[C@@H](Cc2ccccc2)C(=O)N[C@@H](Cc2ccccc2)C(=O)N1` [compound 1, Tyr-c[D-Lys-Phe-Phe-Asp]NH2] (H-Y[dK]FFD-NH2; lactam 2-5), which enzymatic stability [1] is on record?
Answer: The enzymatic stability was “very good enzymatic stability”.

Question: What about the Ki [2] of the same compound?
Answer: The Ki was 1.12 ± 0.2 nM.

Question: And the EC50 (human KOR)?
Answer: Its EC50 is 2.19 nM.

Question: What about the “DOR pEC50 (CL95%)” value (DOR) of the same compound?
Answer: The value was “Crc incomplete”.

Question: And the “Ki NK1” value (human NK1)?
Answer: The value was “Inactive”.

Question: And the “stool mass (constipation)” value (mice)?
Answer: The value was “serious constipation”.

Question: What about the Ki [3] of the same compound?
Answer: Its Ki is 171 ± 3.5 nM.

Question: And the Ki [4]?
Answer: Its Ki is 0.35 ± 0.02 nM.

Question: And the EC50 (human MOR)?
Answer: The EC50 was 1.05 nM.
